The experiment is described as follows: Immunogenic activity of further glycolipids conjugated to PS4. As to conditions: glycolipid conjugated to PS4.

“(2S,3S,4R)-1-(6-(Carbonyl-1-ethyl-2-(tri(1-ethanoyl)1-ethanoyl-2-amino)-α-D-galactopyranosyl)-2-hexacosanoylaminooctadecane-3,4-diol [Compound 27a]”: the immunogenic activity result is “showed immunogenic activity”.

For the origin of these results see patent publication US10588962B2, “Carbohydrate-glycolipid conjugate vaccines” (Max-Planck-Gesellschaft zur Förderung der Wissenschaften …, priority 2012, dated 2020).
